{
  "source": "paper PMC12392461",
  "about": "“Beyond Estrogenicity: A Comparative Assessment of Bisphenol A and Its Alternatives in In Vitro Assays Questions Safety of Replacements” (Environmental Science & Technology, 2025)",
  "key": {"[1]": {"molecular_target": "T1, Estrogen Receptor ERα (Homo sapiens, UniProt P03372)", "T1 sequence (P03372 311-547 limits assumed)": "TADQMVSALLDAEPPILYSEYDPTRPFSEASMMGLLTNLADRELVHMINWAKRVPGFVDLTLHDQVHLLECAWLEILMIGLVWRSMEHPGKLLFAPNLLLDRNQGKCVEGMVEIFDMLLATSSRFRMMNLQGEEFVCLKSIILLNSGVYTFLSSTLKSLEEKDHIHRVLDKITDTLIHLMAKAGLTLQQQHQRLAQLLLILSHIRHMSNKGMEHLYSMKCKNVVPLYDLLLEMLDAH", "experiment": "cell-based", "details": "for EC10, linear: linear model fit; for logEC10: log-logistic model fit; for ERα activation: at noncytotoxic concentrations; for EC10, ERα (M): 10% of maximum effect of E2; for SR-ScoreERα: SR-Score, sigma k=1, x=5; for EC10: ERα; for REPBPA: relative estrogenic potency vs BPA; for EC10, ERα: effect; for log(1/EC10) ERα: input of the ToxPi score, values up to 1.00", "method_in_brief": "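Reporter cells (ERα-UAS-bla GripTite; PPARγ-UAS-bla) grew 24 h at 37 °C, 5% CO₂ in medium containing 2% charcoal-stripped FBS. Cytotoxicity, tracked as IncuCyte confluency, capped data at IC10 for EC10 derivation. Emax% is the fitted log-logistic maximum expressed against the reference chemical's maximum.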"}, "[2]": {"molecular_target": "T1, Estrogen Receptor ERα", "experiment": "aCYP oxidation followed by ERα-UAS-bla GripTite assay (TK-Ratio of effect)", "type": "cell-based", "details": "for EC10, before oxidation / EC10, after oxidation: ERα; for EC10, after oxidation: after abiotic CYP catalyst", "experimental": "Cell culture conditions and bioassay protocols including response detection are provided in Text S2.1–2.4 and Table S3. − Cell viability was determined from cell confluency using an IncuCyte S3 Live-Cell Analysis System (Sartorius AG, Essen, Germany) before and after exposure, except for SH-SY5Y cells (live–dead staining with Nuclear Green LcS1 and propidium iodide, Abcam, UK). For metabolic activation experiments, cell viability was assessed using the ToxBLAzer DualScreen Kit (Thermo Fisher Scientific) to capture the remaining toxicity in ERα-UAS-bla GripTite after treatment with the aCYP catalyst (details in Text S2.4). […]\nThe TK-Ratio method was used to evaluate the impact of abiotic CYP oxidation on the potency of tested compounds. […]\nFor experiments with the preceding aCYP activation, ERα cell viability was additionally calculated from the readout of the ToxBLAzer reagent. The ToxBLAzer assay was conducted following the manufacturer's instructions (Thermo Fisher, Waltham, MA, U.S.).13 Fluorescence intensity was recorded at the start of the assay ( Fwavelength(0h)) and after a 2-hour incubation at […]\nCell viability was assessed based on the red fluorescence signal at 665 nm, applying eq. S11 for normalization.\nCell viability = F665nm(2h, sample)-F665nm(0h, average cell-free) (S11) F665nm(2h, average unexposed)-F665nm(0h, average cell-free) […]\nthe specific endpoint to avoid artifacts from cytotoxicity burst. 15\nS2.5: Concentration-response curves (CRCs)\nTo avoid bias from cytotoxicity burst at higher concentrations, all concentrations exceeding the IC10 for cytotoxicity were excluded in the CRC modeling of effects but otherwise cytotoxicity and effects were fitted with the same model equations (response stands for cytotoxicity or effect). For ERα, AhR, ARE and PPARγ preferably a linear model was fitted to the linear portion of CRC up to maximum 30% effect (eq. S12),16 but in some cases it was necessary to choose a sigmoidal log-concentration-response model, specifically a log-logistic model (eq. S13), to derive effect concentrations and cytotoxicity. For mitochondrial toxicity and neurotoxicity, the […]\nare not reporter gene assays. Common practice when using log-logistic models, e.g., the model implemented in tcpl package in R,17, 18 is that the minima and maxima are also fitted and only median effect concentrations AC50 are derived. […]\nconcentrations (EC10) for both linear and log-sigmoidal CRCs to allow absolute comparisons at the same effect level and for TR and SR -analysis. This was done using the AutomatedBioassayScreening19 published by Braun et al.,20 which also included an algorithm to choose the best model between eq. S12 and eq. S13.\nResponse (%) = slope × C (S12) […]\nlogEC =logEC − 1 ∙log (max−min − 100%) (S14)"}, "[3]": {"experiment": "Octanol-water partition constant (log Kow) measurement, Sirius T3 potentiometric log P", "type": "physicochemical", "details": "experimental, this study", "experimental": "Physicochemical properties provide input parameters for the baseline toxicity model. Acidity constants (pK a) and octanol–water partition constants of the neutral species (K ow) were measured with a Sirius T instrument from Pion Inc. (Sussex, UK) (Text S1.2 and Table S1). A detailed description of the pK a and K ow measurements can be found in literature. , […]\nS1.2: pKa and log Kow measurements […]\ntitrator (Pion Inc., Sussex, U.K.). […]\nUV absorbance. For log Kow measurement, approximately 1 mg of test chemical was added to a sample vial and the measurement was done automatically via the potentiometric log P protocol. Briefly, each compound is titrated thrice in an immiscible biphasic system of octanol and phosphate buffer solution and pH is continuously recorded. The shift in p Ka -values was used to estimate the log Kow values.2, 3 Data processing was performed with Sirius T3 Refine software (version 2.0.0.0.), and the final p Ka and log Kow values were calculated as the average of three titrations. To ensure reproducibility, measurements were conducted on at least two"}, "[4]": {"details": "Bioassay ERα, dosing range all, in M"}},
  "note": "Read-outs that look alike come from different tables or passages of the source.",
  "data": [
    {"smiles": "CC(C)(c1ccc(OCC2CO2)cc1)c1ccc(OCC2CO2)cc1", "note": "(stereo not shown) [BADGE, Bisphenol A diglycidyl ether]", "values": [
      {"measurement": "EC10, linear", "setting": "[1]; Bioassay ERα, dosing range all", "value": "no effect"},
      {"measurement": "logEC10", "setting": "[1]; Bioassay ERα, dosing range all", "value": "no effect"},
      {"measurement": "ERα activation", "setting": "[1]", "value": "did not activate ERα at noncytotoxic concentrations"}
    ]},
    {"smiles": "Cc1ccc(S(=O)(=O)NC(=O)Nc2ccc(Cc3ccc(NC(=O)NS(=O)(=O)c4ccc(C)cc4)cc3)cc2)cc1", "note": "[BTUM, 4,4'-Bis(p-tolylsulfonylureido)diphenylmethane]", "values": [
      {"measurement": "EC10, before oxidation", "setting": "[2]; Table S10", "value": "no effect"},
      {"measurement": "EC10, after oxidation", "setting": "[2]; Table S10", "value": "no effect"},
      {"measurement": "outcome of aCYP experiments", "setting": "[2]; both experimental setups", "value": "inconclusive results"},
      {"measurement": "EC10, linear", "setting": "[1]; Bioassay ERα, dosing range all", "value": "no effect"},
      {"measurement": "logEC10", "setting": "[1]; Bioassay ERα, dosing range all", "value": "no effect"},
      {"measurement": "ERα activation", "setting": "[1]", "value": "did not activate ERα at noncytotoxic concentrations"}
    ]},
    {"smiles": "C=CCOc1ccc(S(=O)(=O)c2ccc(O)cc2)cc1", "note": "[BPS-MAE, 4-[[4-(Allyloxy)phenyl]sulfonyl]phenol]", "values": [
      {"measurement": "EC10, after oxidation", "setting": "[2]; Table S10, in M", "value": "1.28E-05"},
      {"measurement": "EC10, before oxidation", "setting": "[2]; Table S10, in M", "value": "1.26E-05"},
      {"measurement": "TKERα", "setting": "[2]; Table S10, TKERα-Ratio", "value": 0.9842},
      {"measurement": "EC10, ERα (M)", "setting": "[1]", "value": "1.41 × 10^–5 M"},
      {"measurement": "EC10, linear transformed", "setting": "[1]; [4]", "value": "1.26E-05"},
      {"measurement": "EC10, linear", "setting": "[1]; [4]", "value": "1.41E-05"},
      {"measurement": "logEC10", "setting": "[1]; Bioassay ERα, dosing range all", "value": -4.90},
      {"measurement": "SR-ScoreERα", "setting": "[1]", "value": 1.00},
      {"measurement": "EC10", "setting": "[1]; This Study, in M", "value": "1.41E-05"},
      {"measurement": "REPBPA", "setting": "[1]; This Study", "value": "2.63E-02"},
      {"measurement": "EC10, ERα", "setting": "[1]", "value": 0.0141, "unit": "mM"},
      {"measurement": "log(1/EC10) ERα", "setting": "[1]", "value": 0.62}
    ]},
    {"smiles": "CC1(C)[C@H](O)C(C)(C)[C@H]1O", "note": "[t-TMCD, trans-2,2,4,4-Tetramethyl-1,3-cyclobutanediol]", "values": [
      {"measurement": "EC10, before oxidation", "setting": "[2]; Table S10, in M", "value": "3.18E-03"},
      {"measurement": "EC10, ERα (M)", "setting": "[1]", "value": "3.03 × 10^–3 M"},
      {"measurement": "REPBPA,ERα (relative effect potency in relation to BPA)", "setting": "[1]; EC10,BPA/EC10,BPx", "value": "1.2 × 10^–4"},
      {"measurement": "SR-ScoreERα", "setting": "[1]", "value": 0.00922},
      {"measurement": "Efficacy %", "setting": "[1]; This Study", "value": "<20", "unit": "%"},
      {"measurement": "EC10", "setting": "[1]; This Study, in M", "value": "3.03E-03"},
      {"measurement": "REPBPA", "setting": "[1]; This Study", "value": "1.22E-04"},
      {"measurement": "Specificity ratio (SRbaseline) SRERα", "setting": "[1]; against baseline cytotoxicity", "value": 0.32},
      {"measurement": "EC10, ERα", "setting": "[1]", "value": 3.03, "unit": "mM"},
      {"measurement": "log(1/EC10) ERα", "setting": "[1]", "value": 0.32},
      {"measurement": "Relative effect potency REPERα", "setting": "[1]; relative to BPA", "value": 0.000122}
    ]},
    {"smiles": "CC(C)(c1ccc(O)c(-c2ccccc2)c1)c1ccc(O)c(-c2ccccc2)c1", "note": "[BPPH, 2,2-Bis(2-hydroxy-5-biphenylyl)propane]", "values": [
      {"measurement": "EC10, linear", "setting": "[1]; Bioassay ERα, dosing range all", "value": "no effect"},
      {"measurement": "logEC10", "setting": "[1]; Bioassay ERα, dosing range all", "value": "no effect"},
      {"measurement": "ERα activation", "setting": "[1]", "value": "did not activate ERα at noncytotoxic concentrations"},
      {"measurement": "Emax", "setting": "[1]; read-out: Emax%ERα, maximum efficacy relative to E2", "value": 0, "unit": "%"}
    ]},
    {"smiles": "Oc1ccc(C2(c3ccc(O)cc3)CCCCC2)cc1", "note": "[BPZ, 1,1'-Bis(4-hydroxyphenyl)cyclohexane]", "values": [
      {"measurement": "log Kow used", "setting": "[3]", "value": 4.64}
    ]},
    {"smiles": "Cc1ccc(S(=O)(=O)NC(=O)Nc2cccc(OS(=O)(=O)c3ccc(C)cc3)c2)cc1", "note": "[Pergafast, N-(p-toluenesulfonyl)-N'-(3-(p-toluenesulfonyloxy)phenyl)urea]", "values": [
      {"measurement": "log Kow used", "setting": "[3]", "value": 4.11},
      {"measurement": "EC10, linear", "setting": "[1]; Bioassay ERα, dosing range all", "value": "no effect"},
      {"measurement": "logEC10", "setting": "[1]; Bioassay ERα, dosing range all", "value": "no effect"},
      {"measurement": "ERα activation", "setting": "[1]", "value": "did not activate ERα at noncytotoxic concentrations"}
    ]},
    {"smiles": "Cc1cc(Cc2cc(C)c(O)c(C)c2)cc(C)c1O", "note": "[TMBPF, Bis(3,5-dimethyl-4-hydroxyphenyl)methane]", "values": [
      {"measurement": "EC10, linear", "setting": "[1]; Bioassay ERα, dosing range all", "value": "no effect"},
      {"measurement": "logEC10", "setting": "[1]; Bioassay ERα, dosing range all", "value": "no effect"},
      {"measurement": "ERα activation", "setting": "[1]", "value": "did not activate ERα at noncytotoxic concentrations"},
      {"measurement": "Emax", "setting": "[1]; read-out: Emax%ERα", "value": 0, "unit": "%"}
    ]},
    {"smiles": "CC(c1ccccc1)(c1ccc(O)cc1)c1ccc(O)cc1", "note": "[BPAP, 4,4'-(1-Phenylethylidene)bisphenol]", "values": [
      {"measurement": "log Kow used", "setting": "[3]", "value": 5.06}
    ]}
  ]
}
